Assay results: the supplement of paper PMC13380429
Where a name gives a salt, the structure may show the parent alone.

Key:
A549-ACE2 = experiment: drug-induced phospholipidosis relative to tamoxifen; higher = more phospholipidosis
[1] = tested on: A549-ACE2 infected with SARS-CoV-2; experiment: cell count relative to DMSO; higher = less toxic; details: 24 h
Vero E6 [2] = experiment: drug sensitivity score (DSS) for viability; higher = more toxic; extreme values may be limits of the assay; details: 72 h
U2OS [3] = experiment: as above; details: 72 h
Calu-3 [4] = experiment: as above; details: 72 h
HepG2 [5] = experiment: as above; details: 72 h
Caco-2 [6] = experiment: as above; details: 72 h
Vero E6 [7] = experiment: relative viability EC50 (midpoint between 100% and the lowest measured viability); higher = less toxic; details: 72 h
U2OS [8] = experiment: as above; details: 72 h
Calu-3 [9] = experiment: as above; details: 72 h
HepG2 [10] = experiment: as above; details: 72 h
Caco-2 [11] = experiment: as above; details: 72 h
Vero E6 [12] = experiment: cell viability relative to DMSO; higher = less toxic; details: 72 h
U2OS [13] = experiment: as above; details: 72 h
Calu-3 [14] = experiment: as above; details: 72 h
HepG2 [15] = experiment: as above; details: 72 h
Caco-2 [16] = experiment: as above; details: 72 h
[17] = tested on: A549-ACE2 infected with SARS-CoV-2; experiment: morphology score (similarity to uninfected cells); higher = more like uninfected cells; details: 24 h
[18] = tested on: A549-ACE2 infected with SARS-CoV-2; experiment: SARS-CoV-2 infection rate relative to DMSO; higher = more infection; details: 24 h

C[C@H](N)Cc1c[nH]cn1 [alpha-methylhistamine-dihydrobromide-(S)-(+)]
drug-induced phospholipidosis [%], A549-ACE2
Details | 0.3 µM | 0.833333 µM | 3.33333 µM | 6.66667 µM | 10 µM | 30 µM
24 h | 1.4 | -2.09 | -0.4 | -0.13 | -1.06 | 2.88
48 h | 2.76 | -1.54 | -1.15 | -0.6 | 0.05 | 3.3
72 h | 2.88 | -1.77 | -1.17 | -0.807 | 0.33 | 4.01

Details | SARS-CoV-2 infection rate, [18] [%] | cell count, [1] [%] | cell viability, Caco-2 [16] [%] | cell viability, Calu-3 [14] [%] | cell viability, HepG2 [15] [%] | cell viability, U2OS [13] [%] | cell viability, Vero E6 [12] [%] | morphology score, [17]
1 nM | – | – | 93.5 | 100 | 96.1 | 98.9 | 94.7 | –
10 nM | – | – | 87.9 | 105 | 103 | 96.9 | 96.5 | –
100 nM | – | – | 95.2 | 98.2 | 93 | 101 | 92.7 | –
0.3 µM | 96 | 109 | – | – | – | – | – | 0.22
1000 nM | – | – | 98.5 | 100 | 100.2 | 101 | 96.5 | –
3 µM | 101 | 104 | – | – | – | – | – | 0.16
10 µM | 90 | 104 | – | – | – | – | – | 0.28
10000 nM | – | – | 96.6 | 101 | 94.8 | 99.2 | 105 | –
30 µM | 104 | 98 | – | – | – | – | – | -0.09

Details | drug sensitivity score | relative viability EC50 [µM]
Caco-2 [6] | 0 | –
Caco-2 [11] | – | > 10
Calu-3 [4] | 0 | –
Calu-3 [9] | – | > 10
HepG2 [5] | 0 | –
HepG2 [10] | – | > 10
U2OS [3] | 0 | –
U2OS [8] | – | > 10
Vero E6 [2] | 0 | –
Vero E6 [7] | – | > 10

Cc1ccccc1N(C)C(=O)c1ccc([S+]([O-])c2nccs2)c([N+](=O)[O-])c1 (stereo unspecified)
drug-induced phospholipidosis [%], A549-ACE2
Details | 24 h | 48 h | 72 h
0.3 µM | 6.61 | 5.74 | -1.4
0.833333 µM | 10.2 | 5.8 | -1.83

Details | SARS-CoV-2 infection rate, [18] [%] | cell count, [1] [%] | cell viability, Caco-2 [16] [%] | cell viability, Calu-3 [14] [%] | cell viability, HepG2 [15] [%] | cell viability, U2OS [13] [%] | cell viability, Vero E6 [12] [%] | morphology score, [17]
1 nM | – | – | 96.9 | 102 | 106 | 98.5 | 103 | –
10 nM | – | – | 103 | 97.6 | 102 | 99.5 | 98.2 | –
0.1 µM | 101 | 99 | – | – | – | – | – | -0.04
100 nM | – | – | 98.5 | 102 | 95.1 | 95.6 | 100 | –
0.3 µM | 105 | 104 | – | – | – | – | – | 0.06
1 µM | 92 | 99 | – | – | – | – | – | 0.22
1000 nM | – | – | 82.8 | 103 | 89.5 | 41.7 | 88.1 | –
3 µM | 74 | 74 | – | – | – | – | – | 0.22
10000 nM | – | – | 0.2 | 2.3 | 0.2 | 0 | 0.1 | –

Details | drug sensitivity score | relative viability EC50 [µM]
Caco-2 [6] | 8.4 | –
Caco-2 [11] | – | 1.86
Calu-3 [4] | 5.2 | –
Calu-3 [9] | – | 3.36
HepG2 [5] | 7.3 | –
HepG2 [10] | – | 2.29
U2OS [3] | 12.5 | –
U2OS [8] | – | 0.805
Vero E6 [2] | 7.5 | –
Vero E6 [7] | – | 2.19

COc1cc(-c2cc(-c3cccc(O)c3)cnc2N)cc(OC)c1OC
drug-induced phospholipidosis [%], A549-ACE2
Details | 0.3 µM | 0.833333 µM | 3.33333 µM | 6.66667 µM | 10 µM | 30 µM
24 h | 4 | 3.08 | 6.21 | 12 | 15.9 | 47.9
48 h | 3.78 | 1.52 | 1.5 | 4.27 | 9.43 | 62.2
72 h | 4.57 | 0.15 | 0.0757 | 1.61 | 5.86 | 65.7

Details | SARS-CoV-2 infection rate, [18] [%] | cell count, [1] [%] | cell viability, Caco-2 [16] [%] | cell viability, Calu-3 [14] [%] | cell viability, HepG2 [15] [%] | cell viability, U2OS [13] [%] | cell viability, Vero E6 [12] [%] | morphology score, [17]
1 nM | – | – | 101 | 87.7 | 94.1 | 95.8 | 99.7 | –
10 nM | – | – | 103 | 93.6 | 94.6 | 93.7 | 103 | –
100 nM | – | – | 105 | 92.3 | 93.8 | 101 | 97.4 | –
0.3 µM | 101 | 100 | – | – | – | – | – | 0.01
1000 nM | – | – | 101 | 87.6 | 98.4 | 91 | 106 | –
3 µM | 103 | 99 | – | – | – | – | – | 0.39
10 µM | 93 | 105 | – | – | – | – | – | 0.31
10000 nM | – | – | 79.4 | 84.6 | 74.8 | 64.5 | 99 | –
30 µM | 91 | 84 | – | – | – | – | – | 0.16

Details | drug sensitivity score | relative viability EC50 [µM]
Caco-2 [6] | 0.6 | –
Caco-2 [11] | – | > 10
Calu-3 [4] | 0 | –
Calu-3 [9] | – | > 10
HepG2 [5] | 1.2 | –
U2OS [3] | 3.1 | –
Vero E6 [2] | 0 | –
Vero E6 [7] | – | > 10
